# Laboratory results reported in PubChem BioAssay AID2060889 (Molecular Pharmacology Branch, DTP, NCI, 2025).
# Tested on: LG0567-F671-PDC complex spheroids viability
# Assay: Anticancer human tumor LG0567-F671-PDC patient-derived lung adenocarcinoma cell line growth inhibition [RAS]
# Conditions: for IC50: curve of first compound; for viability, T/C: stronger effect = lower value
# Procedure, shortened: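 Multi-cell-type spheroids: tumor cells plus HUVEC endothelial cells and mesenchymal stem cells. RAS-pathway inhibitors were combined with targeted agents, each dosed in half-log steps down from clinical Cmax, or from 10 microM when Cmax was unknown.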
# 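Also: spheroids exposed to compound for seven days before readout.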
# 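For IC50 in this document: luminescence signal used as a proxy for viable cells.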
smiles,measurement,setting,value
CC(=O)OC12COC1CC(O)C1(C)C(=O)C(O)C3=C(C)C(OC(=O)C(O)C(NC(=O)OC(C)(C)C)c4ccccc4)CC(O)(C(OC(=O)c4ccccc4)C21)C3(C)C (centres undefined) + CCn1c(-c2cc(N3CCN(C)CC3)cnc2C(C)OC)c2c3cc(ccc31)-c1csc(n1)CC(NC(=O)C1CC1C)C(=O)N1CCCC(N1)C(=O)OCC(C)(C)C2,IC50,second compound 0.000949 µM,< 0.0316 µM
same,IC50,second compound 0.003 µM,< 0.0316 µM
same,IC50,second compound 0.00949 µM,< 0.0316 µM
same,IC50,second compound 0.03 µM,< 0.0316 µM
same,IC50,second compound 0.0949 µM,< 0.0316 µM
same,IC50,second compound 0.3 µM,< 0.0316 µM
same,"viability, T/C","second compound 0.000949 µM, first compound 0.0316 µM",17.3%
same,"viability, T/C","second compound 0.000949 µM, first compound 0.1 µM",14.6%
same,"viability, T/C","second compound 0.000949 µM, first compound 0.316 µM",16.6%
same,"viability, T/C","second compound 0.000949 µM, first compound 1 µM",20.3%
same,"viability, T/C","second compound 0.000949 µM, first compound 3.16 µM",21.7%
same,"viability, T/C","second compound 0.000949 µM, first compound 10 µM",15.3%
same,"viability, T/C","second compound 0.003 µM, first compound 0.0316 µM",8.54%
same,"viability, T/C","second compound 0.003 µM, first compound 0.1 µM",7.86%
same,"viability, T/C","second compound 0.003 µM, first compound 0.316 µM",8.72%
same,"viability, T/C","second compound 0.003 µM, first compound 1 µM",8.18%
same,"viability, T/C","second compound 0.003 µM, first compound 3.16 µM",8.46%
same,"viability, T/C","second compound 0.003 µM, first compound 10 µM",5.71%
same,"viability, T/C","second compound 0.00949 µM, first compound 0.0316 µM",5.57%
same,"viability, T/C","second compound 0.00949 µM, first compound 0.1 µM",4.28%
same,"viability, T/C","second compound 0.00949 µM, first compound 0.316 µM",4.95%
same,"viability, T/C","second compound 0.00949 µM, first compound 1 µM",3.96%
same,"viability, T/C","second compound 0.00949 µM, first compound 3.16 µM",4.72%
same,"viability, T/C","second compound 0.00949 µM, first compound 10 µM",3.03%
same,"viability, T/C","second compound 0.03 µM, first compound 0.0316 µM",3.18%
same,"viability, T/C","second compound 0.03 µM, first compound 0.1 µM",3.69%
same,"viability, T/C","second compound 0.03 µM, first compound 0.316 µM",3.02%
same,"viability, T/C","second compound 0.03 µM, first compound 1 µM",3.03%
same,"viability, T/C","second compound 0.03 µM, first compound 3.16 µM",2.9%
same,"viability, T/C","second compound 0.03 µM, first compound 10 µM",1.92%
same,"viability, T/C","second compound 0.0949 µM, first compound 0.0316 µM",2.46%
same,"viability, T/C","second compound 0.0949 µM, first compound 0.1 µM",2.37%
same,"viability, T/C","second compound 0.0949 µM, first compound 0.316 µM",2.22%
same,"viability, T/C","second compound 0.0949 µM, first compound 1 µM",2.27%
same,"viability, T/C","second compound 0.0949 µM, first compound 3.16 µM",2.34%
same,"viability, T/C","second compound 0.0949 µM, first compound 10 µM",1.6%
same,"viability, T/C","second compound 0.3 µM, first compound 0.0316 µM",2.92%
same,"viability, T/C","second compound 0.3 µM, first compound 0.1 µM",1.92%
same,"viability, T/C","second compound 0.3 µM, first compound 0.316 µM",1.85%
same,"viability, T/C","second compound 0.3 µM, first compound 1 µM",1.89%
same,"viability, T/C","second compound 0.3 µM, first compound 3.16 µM",2.06%
same,"viability, T/C","second compound 0.3 µM, first compound 10 µM",1.66%
CCc1c2c(nc3ccc(O)cc13)-c1cc3c(c(=O)n1C2)COC(=O)[C@]3(O)CC + CCn1c(-c2cc(N3CCN(C)CC3)cnc2C(C)OC)c2c3cc(ccc31)-c1csc(n1)CC(NC(=O)C1CC1C)C(=O)N1CCCC(N1)C(=O)OCC(C)(C)C2,IC50,second compound 0.000949 µM,< 0.000949 µM
same,IC50,second compound 0.003 µM,< 0.000949 µM
same,IC50,second compound 0.00949 µM,< 0.000949 µM
same,IC50,second compound 0.03 µM,< 0.000949 µM
same,IC50,second compound 0.0949 µM,< 0.000949 µM
same,IC50,second compound 0.3 µM,< 0.000949 µM
same,"viability, T/C","second compound 0.000949 µM, first compound 0.000949 µM",25.9%
same,"viability, T/C","second compound 0.000949 µM, first compound 0.003 µM",19.2%
same,"viability, T/C","second compound 0.000949 µM, first compound 0.00949 µM",16.8%
same,"viability, T/C","second compound 0.000949 µM, first compound 0.03 µM",9.71%
same,"viability, T/C","second compound 0.000949 µM, first compound 0.0949 µM",6.4%
same,"viability, T/C","second compound 0.000949 µM, first compound 0.3 µM",3.66%
same,"viability, T/C","second compound 0.003 µM, first compound 0.000949 µM",13.2%
same,"viability, T/C","second compound 0.003 µM, first compound 0.003 µM",10.5%
same,"viability, T/C","second compound 0.003 µM, first compound 0.00949 µM",8.66%
same,"viability, T/C","second compound 0.003 µM, first compound 0.03 µM",6.1%
same,"viability, T/C","second compound 0.003 µM, first compound 0.0949 µM",4.22%
same,"viability, T/C","second compound 0.003 µM, first compound 0.3 µM",2.19%
same,"viability, T/C","second compound 0.00949 µM, first compound 0.000949 µM",6.6%
same,"viability, T/C","second compound 0.00949 µM, first compound 0.003 µM",5.95%
same,"viability, T/C","second compound 0.00949 µM, first compound 0.00949 µM",4.92%
same,"viability, T/C","second compound 0.00949 µM, first compound 0.03 µM",3.8%
same,"viability, T/C","second compound 0.00949 µM, first compound 0.0949 µM",2.17%
same,"viability, T/C","second compound 0.00949 µM, first compound 0.3 µM",1.39%
same,"viability, T/C","second compound 0.03 µM, first compound 0.000949 µM",4.12%
same,"viability, T/C","second compound 0.03 µM, first compound 0.003 µM",3.96%
same,"viability, T/C","second compound 0.03 µM, first compound 0.00949 µM",3.68%
same,"viability, T/C","second compound 0.03 µM, first compound 0.03 µM",2.7%
same,"viability, T/C","second compound 0.03 µM, first compound 0.0949 µM",1.39%
same,"viability, T/C","second compound 0.03 µM, first compound 0.3 µM",0.64%
same,"viability, T/C","second compound 0.0949 µM, first compound 0.000949 µM",3.25%
same,"viability, T/C","second compound 0.0949 µM, first compound 0.003 µM",3.49%
same,"viability, T/C","second compound 0.0949 µM, first compound 0.00949 µM",2.57%
same,"viability, T/C","second compound 0.0949 µM, first compound 0.03 µM",1.66%
same,"viability, T/C","second compound 0.0949 µM, first compound 0.0949 µM",1.51%
same,"viability, T/C","second compound 0.0949 µM, first compound 0.3 µM",0.39%
same,"viability, T/C","second compound 0.3 µM, first compound 0.000949 µM",2.45%
same,"viability, T/C","second compound 0.3 µM, first compound 0.003 µM",2.81%
same,"viability, T/C","second compound 0.3 µM, first compound 0.00949 µM",2.34%
same,"viability, T/C","second compound 0.3 µM, first compound 0.03 µM",1.76%
same,"viability, T/C","second compound 0.3 µM, first compound 0.0949 µM",0.8%
same,"viability, T/C","second compound 0.3 µM, first compound 0.3 µM",0.31%
